How the values were obtained:
T. cruzi-infected mice = conditions: cited from earlier work
[1] = target: T1, T. cruzi farnesyl diphosphate synthase (TcFPPS) (Trypanosoma cruzi, UniProt Q8WS26); conditions: cited from earlier work
T1 sequence (Q8WS26 64-425 limits assumed): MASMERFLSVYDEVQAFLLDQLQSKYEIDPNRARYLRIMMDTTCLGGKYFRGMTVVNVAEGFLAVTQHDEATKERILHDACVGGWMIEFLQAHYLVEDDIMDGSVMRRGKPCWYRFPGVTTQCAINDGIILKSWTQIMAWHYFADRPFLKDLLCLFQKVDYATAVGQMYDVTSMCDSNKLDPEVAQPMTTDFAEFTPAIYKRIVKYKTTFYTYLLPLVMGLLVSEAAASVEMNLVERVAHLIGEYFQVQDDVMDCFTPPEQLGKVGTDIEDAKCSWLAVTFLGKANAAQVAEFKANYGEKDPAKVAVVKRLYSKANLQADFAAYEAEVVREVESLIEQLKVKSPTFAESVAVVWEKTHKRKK

T. gondii tachyzoites = T. gondii tachyzoites growth inhibition assay; type: cell-based, Toxoplasma gondii; conditions: result in words
[2] = cited from earlier work

Structure (SMILES): O=P(O)(O)C(O)(Cc1cccnc1)P(=O)(O)O [risedronate]
- survival of T. cruzi-infected mice (T. cruzi-infected mice): significantly increase survival

Structure (SMILES): CCCCCCNCC(P(=O)(O)O)P(=O)(O)O [Compound 8]
- mode of inhibition of TcFPPS [1]: competitive inhibitor

Structure (SMILES): CCCCCCCCCCNCC(P(=O)(O)O)P(=O)(O)O [Compound 24, 1-[(n-Dec-1-ylamino)ethyl] 1,1-bisphosphonic Acid]
- antiparasitic activity against T. gondii cells (T. gondii tachyzoites): practically devoid of antiparasitic activity

Structure (SMILES): CN(C)c1ccc(C(=C2C=CC(=[N+](C)C)C=C2)c2ccc(N(C)C)cc2)cc1 [Crystal violet]
- carcinogenicity in in vivo assays [2]: carcinogenic
